Measurements: PMC11522085, “Studies on the mechanisms of action of MR33317” (Naunyn-Schmiedeberg's Archives of Pharmacology, 2024)

Target: T1, 5-HT4-receptor (5-HT4B membrane preparations) (Homo sapiens, UniProt Q13639)
T1 construct: gene HTR4; 5-HT4B membrane preparations (HTS110M, Millipore), recombinant
Assay: radioligand-type competition binding on recombinant 5-HT4B membranes (filtration); partial agonist in cAMP assay
Text: radioligand-type competition binding on recombinant 5-HT4B membranes (filtration); partial agonist in cAMP assay on 5-HT4-receptor (5-HT4B membrane preparations) | MR33317 bound with high affinity to recombinant 5-HT4-receptor.

T1 sequence (Q13639 whole entry): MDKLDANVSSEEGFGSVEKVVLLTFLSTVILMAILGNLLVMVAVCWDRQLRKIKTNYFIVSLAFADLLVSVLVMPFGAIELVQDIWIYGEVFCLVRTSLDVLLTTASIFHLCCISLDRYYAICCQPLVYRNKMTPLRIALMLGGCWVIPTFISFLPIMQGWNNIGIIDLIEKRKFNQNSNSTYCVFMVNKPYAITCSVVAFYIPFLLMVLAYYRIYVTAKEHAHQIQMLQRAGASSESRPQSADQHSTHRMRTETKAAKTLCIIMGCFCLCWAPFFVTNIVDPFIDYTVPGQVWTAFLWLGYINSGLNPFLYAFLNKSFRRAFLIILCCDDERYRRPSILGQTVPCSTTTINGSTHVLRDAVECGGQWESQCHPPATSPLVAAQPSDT

Compound `COc1cc(N)c(Cl)cc1C(=O)CCC1CCN(Cc2cccc(N)c2)CC1` [MR33317] has a Ki of 42.5 ± 2.6 nM.
